Reference: patent US5780054A, “Methods for increasing the circulation half-life of protein-based therapeutics” (University of British Columbia, priority 1996, dated 1998)

Key:
anti-ovalbumin IgG = assay: ELISA of plasma anti-ovalbumin IgG after 3 weekly i.v. injections (FIG. 3); assay type: in vivo, mouse (C3H/HeJ)
Experimental: Groups of four C3H/HeJ mice per experimental point were given the specified treatment as a single i.v. dose via a lateral tail vein. The injection, given in a volume of 200 μL, contained 50 μg of ovalbumin. In animals receiving control (protein free) liposomes, the dose was chosen based on the lipid dose given for the ovalbumin-coated liposome group. This lipid dose was approximately 45 mg/kg. In the groups receiving doxorubicin, the drug dose was approximately 8 mg/kg.
Microtitre plates (Flow Laboratories) were coated with 50 μL of 40 μg/mL ovalbumin and incubated at 4° C. overnight. The plates were washed twice (phosphate buffered saline containing 0.1% (vol/vol) TWEEN® 20) and then blocked with 2% bovine serum albumin (BSA) for 1 hour at 37° C. The plates were rinsed prior to addition of mouse plasma in a final volume of 100 μL (the extent to which the plasma was diluted depended on treatment group). […] Plates were incubated at room temperature for 30 min, washed, and the amount of plate associated β-galactosidase was determined. […] The amount of chlorophenol red produced was determined by measuring absorbance at 570 nm on a […] ® plate reader. Antibody levels were estimated on the basis of standard curves consisting of known quantities of a rabbit polyclonal anti-ovalbumin IgG (Cortex Biochemicals, Calif., USA). […]

[1] = mouse, in vivo; cited from earlier work
RES = details: in vivo; cited from earlier work

Substance | anti-ovalbumin IgG level (anti-ovalbumin IgG) [μg/mL plasma] | maximum tolerated dose [1] | circulation lifetimes for the liposomal carrier (RES) | liposome accumulation in the liver (RES) | spleen and bone marrow cellularity (RES)
free ovalbumin: IMJECT® (ovalbumin) obtained from Pierce | 2.1 |  |  |  | 
liposomal doxorubicin |  | greater than 60 mg doxorubicin/kg | significant increases | significant decreases | extended suppression
